# Experimental data as given in US6127382A, “Amines substituted with a tetrahydroquinolinyl group an aryl or heteroaryl group and an alkyl group, having retinoid-like biological activity” (Allergan Sales, Inc., priority 1999, dated 2000).
# How the values were obtained:
# RXRα = target: T1, RXRα (Homo sapiens, UniProt P19793); experiment: ligand binding assay, RXRα; conditions: read-out: RXR Bind Ki α
# T1 construct: expressed in transfected cells
# T1 sequence (P19793 1-462): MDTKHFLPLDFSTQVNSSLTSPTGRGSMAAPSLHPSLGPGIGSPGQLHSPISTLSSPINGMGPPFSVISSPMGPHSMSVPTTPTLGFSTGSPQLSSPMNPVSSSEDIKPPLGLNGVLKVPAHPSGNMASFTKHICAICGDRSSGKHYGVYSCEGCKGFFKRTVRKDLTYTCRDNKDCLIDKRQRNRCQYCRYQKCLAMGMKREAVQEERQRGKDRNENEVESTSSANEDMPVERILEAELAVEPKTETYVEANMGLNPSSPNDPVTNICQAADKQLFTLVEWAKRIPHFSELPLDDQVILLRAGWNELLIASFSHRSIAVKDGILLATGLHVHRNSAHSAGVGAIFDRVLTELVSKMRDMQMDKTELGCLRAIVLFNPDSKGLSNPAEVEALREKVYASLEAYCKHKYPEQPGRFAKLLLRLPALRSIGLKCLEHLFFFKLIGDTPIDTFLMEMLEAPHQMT
# Excerpt: (§1) Other assays described below, measure the ability of the compounds of the present invention to bind to, and/or activate various retinoid receptor subtypes. When in these assays a compound binds to a given receptor subtype and activates the transcription of a reporter gene through that subtype, then the compound is considered an agonist of that receptor subtype. […] In the below described assays the ability of the compounds to bind to RARα, RARβ, RARγ, RXRα, RXRβ and RXRγ receptors, and the ability or inability of the compounds to activate transcription of a reporter gene through these receptor subtypes can be tested. […] However, some of the compounds of the invention may behave as retinoid antagonists or partial antagonists and/or as inverse agonists. Because of the complex distribution of the different retinoid receptors in various organs of the mammalian body partial agonists and partial antagonists and compounds which have the characteristics of both may lend themselves to particularly useful therapeutic applications and may avoid serious side effects of conventional retinoid drugs.
# (§2) A holoreceptor transactivation assay and a ligand binding assay which measure the antagonist/agonist like activity of the compounds of the invention, or their ability to bind to the several retinoid receptor subtypes, respectively, are described in published PCT Application No. WO WO93/11755 (particularly on pages 30-33 and 37-41) published on Jun. 24, 1993, the specification of which is also incorporated herein by reference. A detailed experimental procedure for holoreceptor transactivations has been described by Heyman et al. Cell 68, 397-406, (1992); Allegretto et al. J. Biol. Chem. 268, 26625-26633, and Mangelsdorf et al. The Retinoids: Biology, Chemistry and Medicine, pp 319-349, Raven Press Ltd., New York, which are expressly incorporated herein by reference. The results obtained in this assay are expressed in EC50 numbers, as they are also in the chimeric receptor transactivation assay. The results of ligand binding assay are expressed in Kd numbers. (See Cheng et al. Biochemical Pharmacology Vol. 22 pp 3099-3108, expressly incorporated herein by reference.)
# (§3) Table 1 discloses the activity of certain exemplary compounds of the invention in the above-described chimeric receptor transactivation assay, holoreceptor transactivation assay and a ligand binding assays. Particularly, the transactivation data pertaining to RAR receptors were obtained in the chimeric assay, and the data pertaining to transactivation of RXR receptors were obtained in the holoreceptor transactivation assay.
# RARα = target: T2, RARα (Homo sapiens, UniProt P10276); experiment: ligand binding assay, RARα; conditions: read-out: RAR Bind Ki α
# T2 sequence (P10276 1-462): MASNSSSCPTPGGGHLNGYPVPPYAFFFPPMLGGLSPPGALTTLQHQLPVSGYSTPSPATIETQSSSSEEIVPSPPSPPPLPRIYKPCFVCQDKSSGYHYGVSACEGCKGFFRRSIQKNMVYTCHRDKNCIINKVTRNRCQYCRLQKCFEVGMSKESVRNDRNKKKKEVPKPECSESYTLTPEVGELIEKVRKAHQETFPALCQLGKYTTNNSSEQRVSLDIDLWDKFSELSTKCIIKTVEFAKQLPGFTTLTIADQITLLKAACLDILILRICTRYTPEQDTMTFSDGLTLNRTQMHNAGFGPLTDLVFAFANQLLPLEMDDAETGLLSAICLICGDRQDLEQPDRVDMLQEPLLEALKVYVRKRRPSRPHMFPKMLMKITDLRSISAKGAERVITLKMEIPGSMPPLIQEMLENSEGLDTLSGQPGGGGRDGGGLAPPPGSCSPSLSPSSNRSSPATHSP
# Excerpt: as §1, §2, §3
# RARγ = target: T3, RARγ (Homo sapiens, UniProt P13631); experiment: ligand binding assay, RARγ; conditions: read-out: RAR Bind Ki γ
# T3 sequence (P13631 1-454): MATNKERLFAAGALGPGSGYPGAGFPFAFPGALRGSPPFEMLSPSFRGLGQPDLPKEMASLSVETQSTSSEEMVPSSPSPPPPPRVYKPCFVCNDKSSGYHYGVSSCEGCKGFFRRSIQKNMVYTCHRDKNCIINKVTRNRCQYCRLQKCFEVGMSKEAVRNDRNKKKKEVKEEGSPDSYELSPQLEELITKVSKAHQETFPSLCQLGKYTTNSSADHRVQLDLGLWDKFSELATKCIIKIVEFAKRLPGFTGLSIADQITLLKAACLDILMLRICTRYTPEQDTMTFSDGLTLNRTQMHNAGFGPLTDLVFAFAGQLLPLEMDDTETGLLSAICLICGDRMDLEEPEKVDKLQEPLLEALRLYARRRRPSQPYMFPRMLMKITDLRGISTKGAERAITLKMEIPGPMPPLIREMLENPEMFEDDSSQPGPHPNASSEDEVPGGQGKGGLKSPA
# Excerpt: as §1, §2, §3
# RXRβ = target: T4, RXRβ (Mus musculus, UniProt P28704); experiment: holoreceptor transactivation assay, RXRβ; type: cell-based; conditions: for EC50: holoreceptor assay, read-out: RXR Trans EC50 β; for Emax: relative to 10^-6 M cyclopropyl penta-2,4-dienoic acid reference, read-out: % efficacy, RXRβ transactivation
# T4 construct: expressed in transfected cells
# T4 sequence (P28704 1-520): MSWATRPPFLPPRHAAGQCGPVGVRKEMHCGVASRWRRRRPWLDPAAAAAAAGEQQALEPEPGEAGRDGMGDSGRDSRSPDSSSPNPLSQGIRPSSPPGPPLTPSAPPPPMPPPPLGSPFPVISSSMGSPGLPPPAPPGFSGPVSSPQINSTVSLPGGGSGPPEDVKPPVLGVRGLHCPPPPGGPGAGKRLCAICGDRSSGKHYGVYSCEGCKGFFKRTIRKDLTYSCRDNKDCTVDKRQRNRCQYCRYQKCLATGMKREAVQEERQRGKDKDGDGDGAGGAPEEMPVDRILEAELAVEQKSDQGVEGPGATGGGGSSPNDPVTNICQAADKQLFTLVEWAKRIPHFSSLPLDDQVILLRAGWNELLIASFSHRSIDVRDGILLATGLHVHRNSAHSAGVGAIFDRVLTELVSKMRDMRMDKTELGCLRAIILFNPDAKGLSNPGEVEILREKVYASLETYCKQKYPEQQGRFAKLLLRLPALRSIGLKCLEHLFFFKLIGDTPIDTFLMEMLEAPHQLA
# Excerpt: as §1, §2, §3
SMILES,Ki (RXRα) [µM],Ki (RARα) [µM],Ki (RARγ) [µM],EC50 (RXRβ) [µM],Emax (RXRβ) [%]
"CCN(c1ccc(C(=O)O)cc1)c1ccc2c(c1)C(C)(C)CC(=O)N2C(C)C [Compound 6, 4-[(1-Isopropyl-4,4-dimethyl-2-oxo-1,2,3,4-tetrahydroquinolin-6-yl)ethylamino]benzoic Acid]",9,10,> 30,> 1,40
"CC(C)N1CCC(C)(C)c2cc(N(C)c3ccc(C(=O)O)cc3)ccc21 [Compound 10, 4-[(1-Isopropyl-4,4-dimethyl-1,2,3,4-tetrahydroquinolin-6-yl)methylamino]benzoic Acid]",> 1,> 10,> 10,–,–
"CCN(c1ccc(C(=O)O)cc1)c1ccc2c(c1)C(C)(C)CCN2C(C)C [Compound 12, 4-[(1-Isopropyl-4,4-dimethyl-1,2,3,4-tetrahydroquinolin-6-yl)ethylamino]benzoic acid]",0.136,0.467,1,1,75
"CC(C)CCN(c1ccc(C(=O)O)cc1)c1ccc2c(c1)C(C)(C)CCN2C(C)C [Compound 14, 4-[(1-Isopropyl-4,4-dimethyl-1,2,3,4-tetrahydroquinolin-6-yl)(3-methylbutyl)amino]-benzoic Acid]",0.904,0.34,1.5,–,–
"Cc1cc2c(cc1N(C)c1ccc(C(=O)O)cc1)C(C)(C)CCN2C(C)C [Compound 22, 4-[(1-Isopropyl-4,4,7-trimethyl-1,2,3,4-tetrahydroquinolin-6-yl)methylamino]benzoic acid]",1.2,> 10,1.7,> 1,15
"CCN(c1ccc(C(=O)O)cc1)c1cc2c(cc1C)N(C(C)C)CCC2(C)C [Compound 24, 4-[(1-Isopropyl-4,4,7-trimethyl-1,2,3,4-tetrahydroquinolin-6-yl)ethylamino]benzoic acid]",0.448,> 10,9.2,1,70

# More lines, now with the values ahead:
Ki (RXRα) [µM],Ki (RARα) [µM],Ki (RARγ) [µM],EC50 (RXRβ) [µM],Emax (RXRβ) [%],SMILES
0.413,15,4.7,> 1,10,"Cc1cc2c(cc1N(CC1CC1)c1ccc(C(=O)O)cc1)C(C)(C)CCN2C(C)C [Compound 26, 4-[(1-Isopropyl-4,4,7-trimethyl-1,2,3,4-tetrahydro-quinolin-6-yl)(cyclopropylmethyl)amino]benzoic acid]"
0.01,> 10,6.3,0.007,102,"CCN(c1ccc(C(=O)O)cc1)c1ccc2c(c1)N(C(C)C)CCC2(C)C [Compound 38, 4-[(1-Isopropyl-4,4-dimethyl-1,2,3,4-tetrahydroquinolin-7-yl)ethylamino]benzoic acid]"
0.049,6.7,2.8,0.01,97,"CC(C)CN(c1ccc(C(=O)O)cc1)c1ccc2c(c1)N(C(C)C)CCC2(C)C [Compound 39, 4-[(1-Isopropyl-4,4-dimethyl-1 2,3,4-tetrahydroquinolin-7-yl)isobutylamino]benzoic acid]"
0.009,5.1,3.5,0.003,93,"CC(C)N1CCC(C)(C)c2ccc(N(CC3CC3)c3ccc(C(=O)O)cc3)cc21 [Compound 40, 4-[(1-Isolpropyl-4,4-dimethyl-1,2,3,4-tetrahydroquinolin-7-yl)(cylopropylmethyl)amino]benzoic acid]"
0.327,> 10,> 10,0.027,104,"Cc1cc2c(cc1Nc1ccc(C(=O)O)cc1)N(C(C)C)CCC2(C)C [Compound 50, 4-(1-Isopropyl-4,4,6-trimethyl-1,2,3,4-tetrahydro-quinolin-7-ylamino)-benzoic acid]"
0.221,> 10,> 10,0.374,119,"Cc1cc2c(cc1N(C)c1ccc(C(=O)O)cc1)N(C(C)C)CCC2(C)C [Compound 51, 4-[(1-Isopropyl-4,4,6-trimethyl-1,2,3,4-tetrahydro-quinolin-7-yl)-methyl-amino]-benzoic acid]"
0.028,9.6,10,0.002,96,"CCN(c1ccc(C(=O)O)cc1)c1cc2c(cc1C)C(C)(C)CCN2C(C)C [Compound 52, 4-[-(1-Isopropyl-4,4,6-trimethyl-1,2,3,4-tetrahydro-quinolin-7-yl)ethylamino]-benzoic acid]"
0.044,3.01,17,0.002,93,"CCCN(c1ccc(C(=O)O)cc1)c1cc2c(cc1C)C(C)(C)CCN2C(C)C [Compound 53, 4-[(1-Isopropyl-4,4,6-trimethyl-1,2,3,4-tetrahydro-quinolin-7-yl)-propyl-amino]-benzoic acid]"
